The target in assay [1] is T1, unphosphorylated c-FMS kinase (uFMS, Seq. ID no. 1) (Homo sapiens, UniProt P07333).
T1 sequence (P07333 538-972): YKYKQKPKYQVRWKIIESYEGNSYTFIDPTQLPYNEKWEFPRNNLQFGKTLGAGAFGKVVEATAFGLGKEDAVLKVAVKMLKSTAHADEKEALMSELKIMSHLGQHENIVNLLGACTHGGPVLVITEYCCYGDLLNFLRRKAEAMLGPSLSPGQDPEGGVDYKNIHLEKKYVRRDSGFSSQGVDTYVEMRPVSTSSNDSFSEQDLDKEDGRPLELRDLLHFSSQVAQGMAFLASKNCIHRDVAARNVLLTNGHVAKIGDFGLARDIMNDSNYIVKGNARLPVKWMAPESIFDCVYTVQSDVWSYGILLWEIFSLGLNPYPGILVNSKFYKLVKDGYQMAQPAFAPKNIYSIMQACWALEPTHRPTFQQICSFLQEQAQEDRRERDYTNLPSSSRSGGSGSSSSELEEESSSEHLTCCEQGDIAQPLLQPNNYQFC
Description: biochemical. The conditions noted are these: uFMS, enzymatic assay, ATP 500 μM.

In assay [2] the test system is osteoclast precursors. In words: cells. It is filed as cell-based. The conditions noted are these: read-out: Osteoclast assay. The method, then: Osteoclast Tartrate-Resistant Acid Phosphatase Assay
Diluted compound was transferred to a 384-well black clear bottom plate. Two-thousand five hundred osteoclast precursors (Lonza, Walkersville, Md.) were added per well in growth media containing Receptor Activator of Nuclear Factor Kappa-beta ligand (RANKL) and M-CSF (R&D Systems, Minneapolis, Minn.). […] Tartrate-resistant acid phosphatase activity in the supernatant samples was determined using an acid phosphatase assay kit (Sigma, St. Louis, Mo.). Absorbance was measured at 550 nm using a plate reader. Data was analyzed using Prism software (Graphpad, San Diego, Calif.) to calculate IC50 values.

Assay [3] deals with unphosphorylated PDGFRβ kinase (uPDGFRβ, Seq. ID No. 3) (Homo sapiens, UniProt P09619). In words: biochemical. The conditions noted are these: uPDGFRb, enzymatic assay, ATP 500 μM.
Chain of unphosphorylated PDGFRβ kinase (uPDGFRβ, Seq. ID No. 3) (P09619 557-1106): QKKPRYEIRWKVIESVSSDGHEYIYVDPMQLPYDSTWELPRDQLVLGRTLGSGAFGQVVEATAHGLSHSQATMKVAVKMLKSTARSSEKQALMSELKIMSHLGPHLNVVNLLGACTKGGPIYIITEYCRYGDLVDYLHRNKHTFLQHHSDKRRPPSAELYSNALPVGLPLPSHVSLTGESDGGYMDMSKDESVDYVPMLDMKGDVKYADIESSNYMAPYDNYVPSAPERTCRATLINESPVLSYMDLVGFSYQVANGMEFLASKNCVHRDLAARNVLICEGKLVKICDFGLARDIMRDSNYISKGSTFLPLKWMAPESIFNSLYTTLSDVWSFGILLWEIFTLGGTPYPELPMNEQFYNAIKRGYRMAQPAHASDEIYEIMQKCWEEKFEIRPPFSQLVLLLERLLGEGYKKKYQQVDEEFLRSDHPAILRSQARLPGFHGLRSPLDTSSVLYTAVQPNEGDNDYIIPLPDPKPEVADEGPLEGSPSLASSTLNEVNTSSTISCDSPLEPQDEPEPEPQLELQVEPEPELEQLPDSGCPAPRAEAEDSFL
Assay [4] has as its system M-NFS-60 cells. Description: cells. The conditions noted are these: 67 h, read-out: M-NFS-60 cell proliferation.
Description: M-NFS-6 Cell Proliferation Assay
A serial dilution of test compound was dispensed into a 384-well black clear bottom plate (Corning, Corning, N.Y.). Two thousand five hundred cells were added per well in 50 μL complete growth medium. […] IC50 values were calculated from a series of percent inhibition values determined at a range of inhibitor concentrations using software routines as implemented in the GraphPad Prism software package.
The target of assay [5] is unphosphorylated c-KIT kinase (uKIT, Seq. ID no. 2) (Homo sapiens, UniProt P10721). Description: biochemical. The conditions noted are these: uKIT, enzymatic assay, ATP 2000 μM.
Chain of unphosphorylated c-KIT kinase (uKIT, Seq. ID no. 2) (P10721 with tags, fused parts or gaps): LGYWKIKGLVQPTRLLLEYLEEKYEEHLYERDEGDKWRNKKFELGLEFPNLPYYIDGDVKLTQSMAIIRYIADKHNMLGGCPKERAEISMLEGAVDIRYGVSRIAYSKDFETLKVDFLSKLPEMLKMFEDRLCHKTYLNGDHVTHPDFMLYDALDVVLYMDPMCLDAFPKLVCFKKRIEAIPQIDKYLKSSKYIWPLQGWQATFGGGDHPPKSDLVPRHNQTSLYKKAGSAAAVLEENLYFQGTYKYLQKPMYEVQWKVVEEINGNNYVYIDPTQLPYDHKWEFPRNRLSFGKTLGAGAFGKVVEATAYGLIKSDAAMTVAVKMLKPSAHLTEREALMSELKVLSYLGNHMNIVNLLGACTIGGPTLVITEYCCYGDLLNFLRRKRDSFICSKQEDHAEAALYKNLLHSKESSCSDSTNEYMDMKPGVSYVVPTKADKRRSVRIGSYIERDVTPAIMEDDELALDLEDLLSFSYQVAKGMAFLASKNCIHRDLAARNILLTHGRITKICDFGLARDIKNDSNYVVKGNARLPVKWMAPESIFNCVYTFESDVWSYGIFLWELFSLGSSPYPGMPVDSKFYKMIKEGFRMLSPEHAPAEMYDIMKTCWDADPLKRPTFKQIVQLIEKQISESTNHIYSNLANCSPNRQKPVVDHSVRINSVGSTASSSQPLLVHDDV
Description: uKit kinase (Seq. ID No. 2) Assay
In this assay, the oxidation of NADH (thus the decrease at A340 nm) was continuously monitored spectrophometrically. […] The inhibition reaction was started by mixing serial diluted test compound with the above reaction mixture. The absorption at 340 nm was monitored continuously for 4 hours at 30° C. on Synergy 2 plate reader (BioTech).

For `Cn1cc(-c2cc(Oc3ccc(NC(=O)NC(=O)C4CC(C)(C)C4)nc3)ncn2)cn1` [Example 5, 3,3-dimethyl-N-((5-((6-(1-methyl-1H-pyrazol-4-yl)pyrimidin-4-yl)oxy)pyridin-2-yl)carbamoyl)cyclobutanecarboxamide], the IC50 was less than 10 nM in assay [1], less than 10 nM in assay [2], 10 to 100 nM in assay [3] and less than 10 nM in assay [4].
As to `Cc1cc(-c2cc(Oc3ccc(NC(=O)NC(=O)C4CC(C)(C)C4)nc3C)ccn2)on1` [Example 14, 3,3-dimethyl-N-((6-methyl-5-((2-(3-methylisoxazol-5-yl)pyridin-4-yl)oxy)pyridin-2-yl)carbamoyl)cyclobutanecarboxamide], the IC50 in assay [2] fell in the range of 10 to 100 nM; in assay [3] it was 100 to 1000 nM.
With `CC(C)C(=O)NC(=O)Nc1ccc(Oc2ccnc(-c3cnn(C)c3)c2)cn1` [Example 24, N-((5-((2-(1-methyl-1H-pyrazol-4-yl)pyridin-4-yl)oxy)pyridin-2-yl)carbamoyl)isobutyramide], the IC50 in assay [2] was less than 10 nM.
As for `COCCCC(=O)NC(=O)Nc1ccc(Oc2ccnc(-c3cnn(C)c3)c2)c(C)n1` [Example 25, 4-methoxy-N-((6-methyl-5-((2-(1-methyl-1H-pyrazol-4-yl)pyridin-4-yl)oxy)pyridin-2-yl)carbamoyl)butanamide], the results for the IC50 in assay [1], in assay [3] and in assay [4] were 10 to 100 nM, greater than 1000 nM and 100 to 1000 nM, respectively.
`Cn1cc(-c2cc(Oc3ccc(NC(=O)NC(=O)C4(C#N)CC4)nc3)ccn2)cn1` [Example 27, 1-cyano-N-((5-((2-(1-methyl-1H-pyrazol-4-yl)pyridin-4-yl)oxy)pyridin-2-yl)carbamoyl)cyclopropanecarboxamide]: the IC50 in assay [1], in assay [5], in assay [3] and in assay [4] was greater than 1000 nM throughout.
Consider `Cc1nc(NC(=O)NC(=O)C2(C#N)CC2)ccc1Oc1ccnc(-c2cnn(C)c2)c1` [Example 28, 1-cyano-N-((6-methyl-5-((2-(1-methyl-1H-pyrazol-4-yl)pyridin-4-yl)oxy)pyridin-2-yl)carbamoyl)cyclopropanecarboxamide], for which the IC50 in assay [1] is 100 to 1000 nM; in assay [5], greater than 1000 nM; in assay [3] it was greater than 1000 nM; in assay [4] it was greater than 1000 nM.
On to `Cc1nc(NC(=O)NC(=O)CN2CCN(C)CC2)ccc1Oc1ccnc(-c2cnn(C)c2)c1` [Example 50, N-((6-methyl-5-((2-(1-methyl-1H-pyrazol-4-yl)pyridin-4-yl)oxy)pyridin-2-yl)carbamoyl)-2-(4-methylpiperazin-1-yl)acetamide], for which the IC50 was 100 to 1000 nM in assay [1], greater than 1000 nM in assay [5] and greater than 1000 nM in assay [4].
With `CC(C)C(=O)NC(=O)Nc1ccc(Oc2ccnc(-c3cnn(C)c3)c2)c(C(F)(F)F)n1` [Example 82, N-((5-((2-(1-methyl-1H-pyrazol-4-yl)pyridin-4-yl)oxy)-6-(trifluoromethyl)pyridin-2-yl)carbamoyl)isobutyramide], the IC50 in assay [2] lay within 100 to 1000 nM.
For `CCC(=O)NC(=O)Nc1ccc(Oc2ccnc(-c3cnc(C)s3)c2)cn1` [Example 98, N-((5-((2-(2-methylthiazol-5-yl)pyridin-4-yl)oxy)pyridin-2-yl)carbamoyl)propionamide], the IC50 in assay [2] fell in the range of 100 to 1000 nM.
With `Cn1cc(-c2cc(Oc3ccc(NC(=O)NC(=O)C4CC5CCC4O5)nc3)ccn2)cn1` (centres unmarked) [Example 111, N-((5-((2-(1-methyl-1H-pyrazol-4-yl)pyridin-4-yl)oxy)pyridin-2-yl)carbamoyl)-7-oxabicyclo[2.2.1]heptane-2-carboxamide], the IC50 was 100 to 1000 nM in assay [5] and less than 10 nM in assay [2].
As to `Cc1ccc(-c2cc(Oc3ccc(NC(=O)NC(=O)C4(C)CC4)nc3)ccn2)cn1` [Example 114, 1-methyl-N-((5-((6′-methyl-[2,3′-bipyridin]-4-yl)oxy)pyridin-2-yl)carbamoyl)cyclopropanecarboxamide], the IC50 in assay [2] is less than 10 nM.
For `Cc1ncc(-c2cc(Oc3ccc(NC(=O)NC(=O)C4CCOC4)nc3)ccn2)s1` (centres unmarked) [Example 115, N-((5-((2-(2-methylthiazol-5-yl)pyridin-4-yl)oxy)pyridin-2-yl)carbamoyl)tetrahydrofuran-3-carboxamide], the IC50 is 10 to 100 nM in assay [1], greater than 1000 nM in assay [5], 10 to 100 nM in assay [2] and 100 to 1000 nM in assay [4].
As for `Cc1ncc(-c2cc(Oc3ccc(NC(=O)NC(=O)C4(C)CC4)nc3)ccn2)s1` [Example 121, 1-methyl-N-((5-((2-(2-methylthiazol-5-yl)pyridin-4-yl)oxy)pyridin-2-yl)carbamoyl)cyclopropanecarboxamide], in assay [2], the IC50 was less than 10 nM.
As to `COC1(C(=O)NC(=O)Nc2ccc(Oc3ccnc(-c4cnc(C)s4)c3)c(C)n2)CC1` [Example 122, 1-methoxy-N-((6-methyl-5-((2-(2-methylthiazol-5-yl)pyridin-4-yl)oxy)pyridin-2-yl)carbamoyl)cyclopropanecarboxamide], the IC50 in assay [1] is 10 to 100 nM; in assay [5] it was greater than 1000 nM; in assay [2], 10 to 100 nM; in assay [4], 100 to 1000 nM.
`CCC(=O)NC(=O)Nc1ccc(Oc2ccnc(-n3cnc(C)c3)c2)cn1` [Example 128, N-((5-((2-(4-methyl-1H-imidazol-1-yl)pyridin-4-yl)oxy)pyridin-2-yl)carbamoyl)propionamide]: the IC50 in assay [1] is 100 to 1000 nM; in assay [5] it was greater than 1000 nM; in assay [2] it was 100 to 1000 nM; in assay [4] it was greater than 1000 nM.
For `Cc1ncc(-c2cc(Oc3ccc(NC(=O)NC(=O)C4CCOCC4)nc3C)ccn2)s1` [Example 129, N-((6-methyl-5-((2-(2-methylthiazol-5-yl)pyridin-4-yl)oxy)pyridin-2-yl)carbamoyl)tetrahydro-2H-pyran-4-carboxamide], the IC50 in assay [1] is 10 to 100 nM; in assay [5], greater than 1000 nM; in assay [2] it was 10 to 100 nM; in assay [4], 100 to 1000 nM.
Consider `COC(C)(C)C(=O)NC(=O)Nc1ccc(Oc2ccnc(-c3ccc(C4CCN(C)CC4)cc3)c2)c(C)n1` [Example 133, 2-methoxy-2-methyl-N-((6-methyl-5-((2-(4-(1-methylpiperidin-4-yl)phenyl)pyridin-4-yl)oxy)pyridin-2-yl)carbamoyl)propanamide], for which the IC50 is less than 10 nM in assay [1], 10 to 100 nM in assay [5], 10 to 100 nM in assay [2] and less than 10 nM in assay [4].
For `Cc1cn(-c2cc(Oc3ccc(NC(=O)NC(=O)C4CCOCC4)nc3C)ccn2)cn1` [Example 142, N-((6-methyl-5-((2-(4-methyl-1H-imidazol-1-yl)pyridin-4-yl)oxy)pyridin-2-yl)carbamoyl)tetrahydro-2H-pyran-4-carboxamide], the IC50 in assay [1] lay in the range of 10 to 100 nM; in assay [5] it was 100 to 1000 nM; in assay [2], 10 to 100 nM; in assay [4], 100 to 1000 nM.
For the compound `COC1(C(=O)NC(=O)Nc2ccc(Oc3ccnc(-n4cnc(C)c4)c3)cn2)CC1` [Example 143, 1-methoxy-N-((5-((2-(4-methyl-1H-imidazol-1-yl)pyridin-4-yl)oxy)pyridin-2-yl)carbamoyl)cyclopropanecarboxamide], the IC50 in assay [1] lay in the range of 10 to 100 nM; in assay [5], 100 to 1000 nM; in assay [2], 10 to 100 nM; in assay [4], 100 to 1000 nM.
Regarding `COC1(C(=O)NC(=O)Nc2ccc(Oc3ccnc(-c4ccc(C5CCN(C)CC5)cc4)c3)c(C)n2)CC1` [Example 144, 1-methoxy-N-((6-methyl-5-((2-(4-(1-methylpiperidin-4-yl)phenyl)pyridin-4-yl)oxy)pyridin-2-yl)carbamoyl)cyclopropanecarboxamide], the IC50 in assay [5] was 100 to 1000 nM; in assay [2], less than 10 nM.
As to `Cc1cn(-c2cc(Oc3ccc(NC(=O)NC(=O)C4(C)CCC4)nc3C)ccn2)cn1` [Example 147, 1-methyl-N-((6-methyl-5-((2-(4-methyl-1H-imidazol-1-yl)pyridin-4-yl)oxy)pyridin-2-yl)carbamoyl)cyclobutanecarboxamide], the IC50 in assay [2] fell in the range of 10 to 100 nM.
Regarding `COC1(C(=O)NC(=O)Nc2ccc(Oc3ccnc(-c4cnn(C)c4)c3)c(C)n2)CCCC1` [Example 150, 1-methoxy-N-((6-methyl-5-((2-(1-methyl-1H-pyrazol-4-yl)pyridin-4-yl)oxy)pyridin-2-yl)carbamoyl)cyclopentanecarboxamide], the IC50 in assay [5] lay in the range of 10 to 100 nM; in assay [2], 10 to 100 nM; in assay [3], 100 to 1000 nM.
Regarding `COC1(C(=O)NC(=O)Nc2ccc(Oc3ccnc(-c4cnn(C)c4)c3)cn2)CCCC1` [Example 153, 1-methoxy-N-((5-((2-(1-methyl-1H-pyrazol-4-yl)pyridin-4-yl)oxy)pyridin-2-yl)carbamoyl)cyclopentanecarboxamide], in assay [2], the IC50 was less than 10 nM.

These data come from patent US9382228B2 (priority 2013, dated 2016).
